EP0590919A1, “Therapeutic agents for parkinson's disease” (KYOWA HAKKO KOGYO CO., LTD., priority 1992, dated 1994)

Key:
[1] = tested on: Haloperidol-Induced Catalepsy; test: Effect on haloperidol-induced catalepsy; assay type: in vivo, mice; details: 10 mg/kg orally; for Number of the Animals Showing Remission: of five mice, catalepsy score not more than 4 points; for Remission Rate (%): rate of decrease in total score based on control group; for Total Score: total catalepsy score of five mice (25 points at the full), haloperidol 1.0 mg/kg i.p.
Protocol: Haloperidol (Janssen Pharmaceutica) suspended in 0.3% CMC was intraperitoneally administered to each mouse at a dose of 1.0 mg/kg. Test compounds were suspended in 0.3% CMC or in injectable distilled water (Otsuka Pharmaceutical Co., Ltd.) containing Tween 80. L-DOPA (Kyowa Hakko Kogyo Co., Ltd.) and benserazide hydrochloride (Kyowa Hakko Kogyo Co., Ltd.) were suspended in 0.3% CMC. One hour after the haloperidol administration, the test compound suspensions and the control suspension [injectable distilled water (Otsuka Pharmaceutical Co., Ltd.) containing Tween 80] containing no test compound were orally administered to separate groups of the mice (0.1 ml per 10 g of body weight). One hour after the administration of the test compound, the forelimbs of each mouse and subsequently the hindlimbs of the same mouse were placed on a 4.5 cm-high, 1.0 cm-wide bar and catalepsy was estimated. […] The catalepsy score and the standard of judgment are shown below. […] The number of the animals showing remission against catalepsy is the number of the mice for which the catalepsy score was not more than 4 points. […] The ED₅₀ values were calculated by Probit analysis.

[2] = biological target: T1, A₂ receptor (Rattus norvegicus, UniProt P30543); test: Adenosine A₂ receptor binding test (³H-CGS 21680 binding); details: [^3H]CGS 21680 was used, rat corpus striatum, read-out: A2 Receptor Inhibition (%); for inhibition at 1 µM: 10^-6M; for inhibition at 0.1 µM: 10^-7M
T1 construct: from tissue; host or cells: rat corpus striatum membrane preparation
T1 sequence (P30543 whole entry): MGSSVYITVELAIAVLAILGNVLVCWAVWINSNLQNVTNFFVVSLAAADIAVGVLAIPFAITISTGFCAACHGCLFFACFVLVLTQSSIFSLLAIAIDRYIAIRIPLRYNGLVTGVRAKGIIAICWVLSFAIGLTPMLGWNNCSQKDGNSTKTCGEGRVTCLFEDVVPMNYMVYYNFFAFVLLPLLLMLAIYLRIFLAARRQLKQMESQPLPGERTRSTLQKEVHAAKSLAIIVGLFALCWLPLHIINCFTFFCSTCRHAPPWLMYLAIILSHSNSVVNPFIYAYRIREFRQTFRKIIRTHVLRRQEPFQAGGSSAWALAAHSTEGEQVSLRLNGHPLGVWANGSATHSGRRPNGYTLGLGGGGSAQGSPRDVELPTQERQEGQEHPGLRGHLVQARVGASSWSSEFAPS
Protocol: The similar procedure as in the above-described adenosine A₁ receptor binding test was repeated using rat corpus striatum to obtain the final precipitate of the tissue thereof. The precipitate was suspended in 50 mM Tris HCl buffer containing 10 mM magnesium chloride and 0.02 unit/mg tissue of adenosine deaminase (manufactured by Sigma Co.) to give a tissue concentration of 5 mg (wet weight)/ml.
The similar procedure as above was repeated to determine the radioactivity bound to the A₂ receptors using 50 µl of CGS 21680 labeled with tritium [³H-2-[p-(2-carboxyethyl)-phenethylamino]-5'-(N-ethylcarboxamide)adenosine: 40 Ci/mmol, manufactured by New England Nuclear Co. (J. Pharmacol. Exp. Ther., 251, 888 (1989)] (final concentration: 4.0 nM) in place of 50 µl of the mixture of N-ethylcarboxamidoadenosine labeled with tritium (³H-NECA: 26 Ci/mmol, manufactured by Amersham Co.) (final concentration: 3.8 nM) and cyclopentyladenosine (CPA, manufactured by Sigma Co.) (final concentration: 50 nM).
The inhibition rate of the test compound against the binding of A₂ receptors (³H-CGS 21680 binding) was calculated by the following equation: [formula] [Notes] • 1. "B" means the amount of radioactivity of ³H-CGS 21680 bound in the presence of a test compound at a concentration shown in Table 4. • 2. "T" means the amount of radioactivity of ³H-CGS 21680 bound in the absence of a test compound. • 3. "N" means the amount of radioactivity of ³H-CGS 21680 bound in the presence of 100 µM CPA.

[3] = tested on: dd-strain male mice; test: Acute toxicity test (minimum lethal dose, oral); assay type: in vivo; details: oral administration, three mice per group, mortality seven days after administration
Protocol: Test compounds were orally administered to groups of dd-strain male mice weighing 20 ± 1 g, each group consisting of three mice. Seven days after the administration, minimum lethal dose (MLD) of each compound was determined by observing the mortality.

| SMILES | Number of the Animals Showing Remission [1] | Remission Rate (%) [1] [%] | Total Score [1] | inhibition at 1 µM [2] [%] | inhibition at 0.1 µM [2] [%] | MLD [3] [mg/kg] |
| --- | --- | --- | --- | --- | --- | --- |
| CCn1c(=O)c2c(nc(/C=C/c3cccc(OC)c3)n2C)n(CC)c1=O [Compound 40, (E)-1,3-Diethyl-8-(3-methoxystyryl)-7-methylxanthine] | 5 | 88 | 3 | 98 | 88 | > 300 |
| CCn1c(=O)c2c(nc(/C=C/c3ccc(C)cc3)n2C)n(CC)c1=O [Compound 44, (E)-1,3-Diethyl-7-methyl-8-(4-methylstyryl)xanthine] | 3 | 32 | 17 | 103 | 64 | > 100 |
| CCn1c(=O)c2c(nc(/C=C/c3cccc(OC)c3[N+](=O)[O-])n2C)n(CC)c1=O [Compound 64, (E)-1,3-Diethyl-8-(3-methoxy-2-nitrostyryl)-7-methylxanthine] | 4 | 36 | 16 | 94 | 89 | > 100 |
| CCn1c(=O)c2c(nc(/C=C/c3ccc(Br)cc3)n2C)n(CC)c1=O [Compound 78, (E)-8-(4-Bromostyryl)-1,3-diethyl-7-methylxanthine] | 3 | 28 | 18 | 89 | 68 | > 100 |
| CCn1c(=O)c2c(nc(/C=C/c3ccc(OCOC)cc3)n2C)n(CC)c1=O [Compound 82, (E)-1,3-Diethyl-8-(4-methoxymethoxystyryl)-7-methylxanthine] | 5 | 64 | 9 | 98 | 86 | > 100 |
| CCn1c(=O)c2c(nc(/C=C/c3ccc(F)cc3)n2C)n(CC)c1=O [Compound 84, (E)-1,3-Diethyl-8-(4-fluorostyryl)-7-methylxanthine] | 4 | 32 | 17 | 100 | 82 | > 100 |
| CCn1c(=O)c2c(nc(/C=C/c3cc(C(F)(F)F)cc(C(F)(F)F)c3)n2C)n(CC)c1=O [Compound 86, (E)-8-[3,5-Bis(trifluoromethyl)styryl]-1,3-diethyl-7-methylxanthine] | 3 | 36 | 16 | 73 | 29 | > 100 |
| CCn1c(=O)c2c(nc(/C=C/c3cccc([N+](=O)[O-])c3)n2C)n(CC)c1=O [Compound 90, (E)-1,3-Diethyl-7-methyl-8-(3-nitrostyryl)xanthine] | 4 | 44 | 14 | 94 | 85 | > 100 |
| CCn1c(=O)c2c(nc(/C=C/c3cccc(Br)c3)n2C)n(CC)c1=O [Compound 92, (E)-8-(3-Bromostyryl)-1,3-diethyl-7-methylxanthine] | 4 | 52 | 12 | 103 | 93 | > 100 |
| CCn1c(=O)c2c(nc(/C=C/c3ccc(OC)c(F)c3)n2C)n(CC)c1=O [Compound 103, (E)-1,3-Diethyl-8-(3-fluoro-4-methoxystyryl)-7-methylxanthine] | 3 | 36 | 16 | 102 | 75 | > 100 |
| CCn1c(=O)c2c(nc(/C=C/c3cccc(F)c3C)n2C)n(CC)c1=O [Compound 109, (E)-1,3-Diethyl-8-(3-fluoro-2-methylstyryl)-7-methylxanthine] | 5 | 84 | 4 | 96 | 97 | > 100 |
| CCn1c(=O)c2c(nc(/C=C/c3ccc(O)c(O)c3)n2C)n(CC)c1=O [Compound 110, (E)-8-(3,4-Dihydroxystyryl)-1,3-diethyl-7-methylxanthine] | 3 | 20 | 20 | 96 | 61 | > 100 |
| CCn1c(=O)c2c(nc(/C=C/c3ccc(O)cc3)n2C)n(CC)c1=O [Compound 112, (E)-1,3-Diethyl-8-(4-hydroxystyryl)-7-methylxanthine] | 5 | 84 | 4 | 95 | 79 | > 100 |
| CCn1c(=O)c2c(nc(/C=C/c3ccc(OCc4ccccc4)cc3)n2C)n(CC)c1=O [Compound 113, (E)-8-(4-Benzyloxystyryl)-1,3-diethyl-7-methylxanthine] | 3 | 24 | 19 | 68 | 34 | > 100 |
